Data taken from patent US9451775B2, “Heterocyclic compounds as pesticides” (Bayer Intellectual Property GmbH, priority 2008, dated 2016).

Assay: logP determination by HPLC (formic acid method)
Assay type: physicochemical
Conditions: pH 3.4; values given in the preparation examples; formic acid method; read-out: logP (HCOOH)
Protocol: 1) Description of the method for determining the logP values (formic acid method)
The logP values given in the table were determined in accordance with EEC Directive 79/831 Annex V.A8 by HPLC (High Performance Liquid Chromatography) on a reversed-phase column (C18). Temperature: 55° C.
Mobile phases for the determination in the acidic range (pH 3.4):
Mobile phase A: Acetonitrile+1 ml of formic acid/litre. Mobile phase B: water+0.9 ml of formic acid/litre.
Gradient: from 10% mobile phase A/90% mobile phase B to 95% mobile phase A/5% mobile phase B in 4.25 min.
Calibration was carried out using unbranched alkan-2-ones (having 3 to 16 carbon atoms) with known logP values (determination of the logP values by the retention times using linear interpolation between two successive alkanones). The lambda max values were determined in the maxima of the chromatographic signals using the UV spectra from 200 nm to 400 nm.
COC(=O)c1cc(-c2cccnc2)nn1C (single isomer, unassigned) [drawing 76 isomer 1] gave a chromatographic logP of 0.84. Compound COC(=O)c1cc(-c2cccnc2)n(C)n1 (single isomer, unassigned) [drawing 76 isomer 2] has a chromatographic logP of 0.77.

Same assay, conditions: reversed-phase HPLC column (C18), pH 3.4, HPLC on reversed-phase column (C18), acidic range (pH 3.4), 55° C.; read-out: logP (HCOOH)
With Cc1nc(-c2cccnc2)sc1-c1nc(-c2ccccn2)cs1 [compound 172] the chromatographic logP was 2.53. With Cc1cccc(-c2csc(-c3sc(-c4cccnc4)nc3C)n2)n1 [compound 173] the chromatographic logP was 2.66. CNc1nc(-c2sc(-c3cccnc3)nc2C)cs1 [compound 174] showed a chromatographic logP of 1.76. Compound Cc1nc(-c2cccnc2)sc1-c1nc(C(=O)NCC(F)(F)F)cs1 [compound 175] has a chromatographic logP of 2.23. COc1cc(OC)nc(-c2nc(-c3sc(-c4cccnc4)nc3C)cs2)n1 [compound 176] gave a chromatographic logP of 3.21. In the case of Cc1nc(-c2cccnc2)sc1-c1csc(-c2cccnc2)n1 [compound 177], the chromatographic logP is reported as 2.19. For Clc1cccc(-c2cnc(-c3cccnc3)s2)n1 [compound 178], the chromatographic logP was 2.43. Cc1nc(-c2cncnc2)sc1-c1ccnc(-c2ncccn2)n1 [compound 179] gave a chromatographic logP of 1.06. Compound c1cncc(-c2ncc(-c3cccc(-c4nccnn4)n3)s2)c1 [compound 180] has a chromatographic logP of 1.43. Compound CN1CCOC(c2cccc(-c3cnc(-c4cccnc4)s3)n2)=N1 [compound 181] has a chromatographic logP of 1.82.

Same assay, conditions: reversed-phase HPLC column (C18), pH 3.4, values printed in the text of the preparation examples; formic acid method; read-out: logP (HCOOH)
Work on CC(=O)c1cc(-c2cccnc2)nn1C yielded a chromatographic logP of 0.61. For CN(C)/C=C/C(=O)c1cc(-c2cccnc2)nn1C, the chromatographic logP was 0.6. Compound CC(=O)c1nnc(-c2cccnc2)s1 [1-(5-Pyridin-3-yl-[1,3,4]thiadiazol-2-yl)ethanone] has a chromatographic logP of 1.16. In the case of Cc1nc(-c2cccnc2)sc1-c1cccc(Cl)n1 [2-Chloro-6-(4-methyl-2-pyridin-3-ylthiazol-5-yl)pyridine], the chromatographic logP is reported as 2.66. With CC(=O)c1sc(-c2cccnc2)nc1C [3-(5-Acetyl-4-methylthiazol-2-yl)pyridinium chloride] the chromatographic logP was 1.48. For Cc1nc(-c2cccnc2)sc1Br [3-(5-Bromo-4-methylthiazol-2-yl)pyridine], the chromatographic logP was 2.3. Work on Brc1cccc(C2=NOCCO2)n1 [3-(6-Bromopyridin-2-yl)-5,6-dihydro-[1,4,2]dioxazine] yielded a chromatographic logP of 1.37. For Cc1nc(-c2cccnc2)sc1C(=O)/C=C/N(C)C [3-Dimethylamino-1-(4-methyl-2-pyridin-3-ylthiazol-5-yl)propenone], the chromatographic logP was 1.35. c1cncc(-c2nccs2)c1 [3-Thiazol-2-ylpyridine] gave a chromatographic logP of 0.62. In the case of c1cncc(-c2nncs2)c1 [3-[1,3,4]Thiadiazol-2-ylpyridine], the chromatographic logP is reported as 0.15. Cc1nc(-c2cccnc2)sc1-c1cc[nH]n1 [3-[4-Methyl-5-(1H-pyrazol-3-yl)thiazol-2-yl]pyridine] gave a chromatographic logP of 1.31. Work on Cc1nc(-c2cccnc2)sc1C(=O)NN(CCO)c1ncccn1 [4-Methyl-2-pyridin-3-ylthiazole-5-carboxylic acid N-(hydroxyethyl)-N-pyrimidin-2-ylhydrazide] yielded a chromatographic logP of 1.08. Compound Cc1nc(-c2cccnc2)sc1-c1cccc(C#N)n1 [6-(4-Methyl-2-pyridin-3-ylthiazol-5-yl)pyridine-2-carbonitrile] has a chromatographic logP of 2.11. Cc1nc(-c2cccnc2)sc1-c1cccc(C(N)=S)n1 [6-(4-Methyl-2-pyridin-3-ylthiazol-5-yl)pyridine-2-carbothioamide] gave a chromatographic logP of 2.13. For O=C(NO)c1cccc(Br)n1 [6-Bromopyridine-2-carboxylic acid hydroxyamide], the chromatographic logP was 0.69. CN(C)/C=C/C(=O)c1nnc(-c2cccnc2)s1 [(3-Dimethylamino-1-(5-pyridin-3-yl-[1,3,4]thiadiazol-2-yl)propenone] gave a chromatographic logP of 1.05. Compound CCOC(=O)C(=O)NNC(=O)c1cccnc1 [Ethyl oxo-[N′-(pyridin-3-carbonyl)hydrazino]acetate] has a chromatographic logP of -0.13.

Same assay, conditions: values given in the preparation examples; formic acid method
For CC(=O)c1sc(-c2cccnc2)nc1C [1-(4-Methyl-2-pyridin-3-ylthiazol-5-yl)ethanone], the “logP (HCOOH)” value was 1.5.
